Measurements from patent publication US20220008514A1, “COMBINED USE OF SELECTIVE SEROTONIN REUPTAKE INHIBITORS AND HEMATOPOIETIC GROWTH FACTORS FOR TREATING HEMATOPOIETIC DISEASES” (IMAGINE INSTITUT DES MALADIES GENETIQUES NECKER ENFANTS …, priority 2018, published 2022).

Assays:
[1] = tested on: erythroid cells generated from CD34+ cord blood progenitor cells; assay: Human cord blood erythroid in vitro cell culture, erythroid proliferation (FIG. 3); type: cell-based; conditions: serum-free medium with EPO (2 mU/ml)+IL-3 (10 ng/ml)+SCF (50 ng/ml)
Procedure: FIG. 3. Human in vitro experiments (effect of 5-HT combined with EPO). To determine the role played by serotonin in erythroid proliferation, inventors used a well-defined culture system that closely mimics the proliferation and differentiation of erythroid precursors in vivo. […] Erythroid cells were generated from CD34^+ cord blood progenitor cells in serum-free medium in the presence of EPO (2 mU/ml)+IL-3 (10 ng/ml)+stem cell factor (SCF; 50 ng/ml). Throughout data are mean±SEM. Unpaired t-test and Pearson linear and non-linear regressions were used when appropriate. *P<0.05, **P<0.005, ***P<0.0005.
Erythroid cells were generated from CD34^+ cord blood progenitor cells in serum-free medium in the presence of EPO (2 mU/ml)+IL-3 (10 ng/ml)+stem cell factor (SCF; 50 ng/ml) as previously described in Zermati et al., (2000) Exp. Hematol. 28:885-894.

[2] = tested on: anemia after sub-lethal irradiation in WT mice; assay: Sub-lethal irradiation anemia model in WT mice, fluoxetine versus placebo (FIG. 5A, 5B); type: in vivo, mouse; conditions: fluoxetine for 7 days followed by sub-lethal irradiation
[3] = tested on: irradiation-induced cytopenia in WT C57BL/6 mice; assay: Sub-lethal irradiation-induced cytopenia in mice: SSRI, hematopoietic growth factor or both (FIG. 7, 8, 9, Table 1); type: in vivo, mouse; conditions: At Day 17 from sublethal irradiation
[4] = tested on: chemotherapy induced aplasia; assay: Human cohort study: effect of SSRI on chemotherapy-induced aplasia after autologous HSCT (FIG. 6); type: in vivo; conditions: patients at the time of autologous HSCT after myeloablative chemotherapy, versus matched controls not under SSRI
Text: FIG. 6. Human cohort study (effect of SSRI on chemotherapy induced aplasia). A reduced duration of aplasia is observed in patients treated with SSRI at the time of autologous HSCT (x), in comparison with the duration of aplasia observed for patients having not been under SSRI medication (+).
In order to evaluate the impact of treatment with SSRI on chemotherapy-induced aplasia, data of all patients benefiting from autologous hematopoietic stem cell transplantation (HSCT) from 2010 to 2017 in the hematology department of Necker Hospital, Paris, France were screened. Data from 22 patients who were under therapy with SSRI for usual indications at the time of autologous HSCT retrospectively reviewed, and compared with 66 control patients (3 controls per patient) matched for confounding factors (age, sex, disease, response of disease before therapy, conditioning regimen, date of transplant and number of CD34+ cells injected). It is observed a reduced duration of aplasia (a criterion of which, commonly described in the art, being a number of polynuclear neutrophils below 500/mm^3) in patients who were treated with SSRI at the time of autologous HSCT.

[5] = tested on: CD71+/TER119+ population in Tph1+/- mice; assay: Sub-lethal irradiation in Tph1+/- mice, fluoxetine versus placebo, erythroid precursor immunophenotyping (FIG. 5C, 5D); type: in vivo, mouse; conditions: starting on day 7 following sub-lethal irradiation, compared to placebo

## NCCc1c[nH]c2ccc(O)cc12 [5-HT, 5-hydroxytryptamine]
[1]
  erythroid proliferation: significantly enhances erythroid proliferation

## CNCC[C@@H](Oc1ccc(C(F)(F)F)cc1)c1ccccc1 (racemic) [fluoxetine, (RS)-N-methyl-3-phenyl-3-propan-1-amine]
[2]
  day of rapid and significant increase in the number of reticulocytes: 3 days
[2]; placebo no normalization until day 22
  day of normalization of Hb levels: 11 days
[3]
  % of mice with Hemoglobin level ≤8 g/dl: 100%
  % of mice with Normal Hemoglobin level: 0%
  % of mice with Normal neutrophil number: 20%
  % of mice with Normal platelet level: 0%
[4]
  duration (length) of aplasia: considerably reduced by at least two days
[5]
  CD71+/TER119+ population: significant increase

## Cn1c2c(c3ccccc31)CCNCC2 [PNU 22394]
[1]
  erythroid proliferation: significantly enhances erythroid proliferation
